In ChEMBL document CHEMBL5247677, “N-Aryl Indoles as a Novel Class of Potent NaV1.7 Inhibitors” (ACS Med Chem Lett, 2023):
In brackets after ≈: the same amount, converted by molar mass. Activity calls are given as the source filed them. No cut-off for these calls is given here.

Tests used:
[1] = target: Sodium channel protein type 9 subunit alpha/beta-1/beta-2 (Homo sapiens, UniProt Q15858); assay: Inhibition of human Nav1.7/beta1/2 transfected in HEK293-A cells assessed as inhibition of channel current incubated for 5.5 mins by high-throughput electrophysiology system analysis; assay type: cell-based
[2] = AUC(0 to 24 hrs) in ddY mouse at 1 mg/kg, po by LC-MS/MS analysis; assay type: ADME, organism-based; parameters: dose 1 mg/kg, route po; conditions: in vivo
[3] = Aqueous thermodynamic solubility of the compound at pH 6.8 measured after 4 hrs by HPLC-UV analysis; assay type: physicochemical; conditions: read-out: Therm_solubility
[4] = 1-Octanol/PBS buffer distribution coefficient, log D of the compound at pH 7.4 by HPLC/LC-MS analysis; assay type: physicochemical
[5] = tested on: Mus musculus; assay: Analgesic activity against PSL-induced neuropathic pain mouse model assessed as reversal of thermal hyperalgesia at 1 mg/kg, po measured after 60 mins by plantar test; assay type: functional, organism-based
[6] = target: Sodium channel protein type 1 subunit alpha/beta-1/beta-2 (Homo sapiens, UniProt P35498); assay: Inhibition of human Nav1.1/beta1/2 transfected in HEK293-A cells assessed as inhibition of channel current incubated for 5.5 mins by high-throughput electrophysiology system analysis; assay type: toxicity, cell-based
[7] = Volume of distribution at steady state in ddY mouse at 1 mg/kg, iv by LC-MS/MS analysis; assay type: ADME, organism-based; conditions: in vivo, read-out: Vdss
[8] = Tmax in ddY mouse at 1 mg/kg, po by LC-MS/MS analysis; assay type: ADME, organism-based; conditions: in vivo
[9] = Half life in ddY mouse at 1 mg/kg, po by LC-MS/MS analysis; assay type: ADME, organism-based; conditions: in vivo
[10] = Glutathione reactivity in human liver microsome assessed as GSH adduct formation; assay type: ADME; conditions: microsomes
[11] = target: hERG (KCNH2) (Homo sapiens, UniProt Q12809); assay: Inhibition of hERG at 100 uM; assay type: toxicity
hERG (KCNH2), sequence (Q12809 whole entry): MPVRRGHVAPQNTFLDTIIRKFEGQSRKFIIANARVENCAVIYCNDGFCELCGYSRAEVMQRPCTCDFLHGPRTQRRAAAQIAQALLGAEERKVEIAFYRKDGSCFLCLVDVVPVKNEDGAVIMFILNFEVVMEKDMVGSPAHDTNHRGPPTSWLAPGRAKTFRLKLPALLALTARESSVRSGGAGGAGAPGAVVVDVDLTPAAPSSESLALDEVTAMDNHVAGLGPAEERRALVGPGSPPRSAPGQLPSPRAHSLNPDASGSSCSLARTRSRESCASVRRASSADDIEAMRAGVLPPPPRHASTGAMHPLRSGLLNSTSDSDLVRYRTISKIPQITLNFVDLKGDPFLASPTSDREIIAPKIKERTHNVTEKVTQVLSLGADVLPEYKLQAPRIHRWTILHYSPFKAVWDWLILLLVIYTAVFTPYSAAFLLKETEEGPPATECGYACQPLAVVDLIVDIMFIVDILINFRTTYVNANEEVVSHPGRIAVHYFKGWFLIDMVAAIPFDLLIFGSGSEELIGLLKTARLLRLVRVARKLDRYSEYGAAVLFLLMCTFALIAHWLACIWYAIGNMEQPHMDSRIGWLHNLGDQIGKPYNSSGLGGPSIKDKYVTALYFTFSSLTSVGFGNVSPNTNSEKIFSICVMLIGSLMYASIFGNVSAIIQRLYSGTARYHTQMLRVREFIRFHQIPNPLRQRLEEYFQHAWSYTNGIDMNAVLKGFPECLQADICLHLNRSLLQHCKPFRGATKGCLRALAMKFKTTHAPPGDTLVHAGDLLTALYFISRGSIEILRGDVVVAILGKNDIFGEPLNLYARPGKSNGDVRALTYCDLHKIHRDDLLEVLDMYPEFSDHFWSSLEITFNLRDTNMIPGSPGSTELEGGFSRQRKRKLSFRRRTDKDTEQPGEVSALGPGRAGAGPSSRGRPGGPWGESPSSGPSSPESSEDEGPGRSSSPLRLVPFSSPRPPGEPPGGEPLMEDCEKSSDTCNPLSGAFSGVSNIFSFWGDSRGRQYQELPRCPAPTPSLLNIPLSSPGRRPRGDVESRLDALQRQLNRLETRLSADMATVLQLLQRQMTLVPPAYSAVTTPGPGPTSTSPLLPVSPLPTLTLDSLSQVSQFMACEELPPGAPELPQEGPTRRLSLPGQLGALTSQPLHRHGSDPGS

[12] = target: Cytochrome P450 2C9 (Homo sapiens, UniProt P11712); assay: Inhibition of CYP2C9 (unknown origin) at 10 uM; assay type: ADME
Cytochrome P450 2C9, sequence (P11712 whole entry): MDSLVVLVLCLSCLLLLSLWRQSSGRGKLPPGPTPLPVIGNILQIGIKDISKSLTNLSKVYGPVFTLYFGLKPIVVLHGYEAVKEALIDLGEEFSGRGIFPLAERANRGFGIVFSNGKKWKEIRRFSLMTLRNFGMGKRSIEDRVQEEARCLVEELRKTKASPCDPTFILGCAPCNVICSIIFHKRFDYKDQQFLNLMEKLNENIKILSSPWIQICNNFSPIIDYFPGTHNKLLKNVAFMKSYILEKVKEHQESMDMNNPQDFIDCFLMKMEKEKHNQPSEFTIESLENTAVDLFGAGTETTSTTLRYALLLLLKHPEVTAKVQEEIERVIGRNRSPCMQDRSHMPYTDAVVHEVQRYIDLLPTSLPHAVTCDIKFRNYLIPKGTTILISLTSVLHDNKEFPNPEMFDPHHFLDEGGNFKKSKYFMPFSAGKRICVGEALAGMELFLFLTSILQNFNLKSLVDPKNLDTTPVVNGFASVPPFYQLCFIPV

[13] = target: Sodium channel protein type 5 subunit alpha/beta-1/beta-2 (Homo sapiens, UniProt Q14524); assay: Inhibition of human Nav1.5/beta1/2 transfected in HEK293-A cells assessed as inhibition of channel current incubated for 5.5 mins by high-throughput electrophysiology system analysis; assay type: toxicity, cell-based
[14] = Selectivity ratio of IC50 for human Nav1.1/beta1/2 transfected in HEK293-A cells to IC50 for human Nav1.7/beta1/2 transfected in HEK293-A cells
[15] = Total body clearance in ddY mouse at 1 mg/kg, iv by LC-MS/MS analysis; assay type: ADME, organism-based; conditions: in vivo
[16] = Selectivity ratio of IC50 for human Nav1.5/beta1/2 transfected in HEK293-A cells to IC50 for human Nav1.7/beta1/2 transfected in HEK293-A cells
[17] = Bioavailability in ddY mouse at 1 mg/kg, iv by LC-MS/MS analysis; assay type: ADME, organism-based; conditions: in vivo
[18] = tested on: Mus musculus; assay: Analgesic activity against PSL-induced neuropathic pain mouse model assessed as reversal of thermal hyperalgesia at 1 mg/kg, po measured after 240 mins by plantar test; assay type: functional, organism-based
[19] = Cmax in ddY mouse at 1 mg/kg, po by LC-MS/MS analysis; assay type: ADME, organism-based; parameters: dose 1 mg/kg, route po; conditions: in vivo
[20] = tested on: Mus musculus; assay: Analgesic activity against PSL-induced neuropathic pain mouse model assessed as reversal of thermal hyperalgesia at 1 mg/kg, po measured after 30 mins by plantar test; assay type: functional
[21] = target: Cytochrome P450 2D6 (Homo sapiens, UniProt P10635); assay: Inhibition of CYP2D6 (unknown origin) at 10 uM; assay type: ADME
Cytochrome P450 2D6, sequence (P10635 whole entry): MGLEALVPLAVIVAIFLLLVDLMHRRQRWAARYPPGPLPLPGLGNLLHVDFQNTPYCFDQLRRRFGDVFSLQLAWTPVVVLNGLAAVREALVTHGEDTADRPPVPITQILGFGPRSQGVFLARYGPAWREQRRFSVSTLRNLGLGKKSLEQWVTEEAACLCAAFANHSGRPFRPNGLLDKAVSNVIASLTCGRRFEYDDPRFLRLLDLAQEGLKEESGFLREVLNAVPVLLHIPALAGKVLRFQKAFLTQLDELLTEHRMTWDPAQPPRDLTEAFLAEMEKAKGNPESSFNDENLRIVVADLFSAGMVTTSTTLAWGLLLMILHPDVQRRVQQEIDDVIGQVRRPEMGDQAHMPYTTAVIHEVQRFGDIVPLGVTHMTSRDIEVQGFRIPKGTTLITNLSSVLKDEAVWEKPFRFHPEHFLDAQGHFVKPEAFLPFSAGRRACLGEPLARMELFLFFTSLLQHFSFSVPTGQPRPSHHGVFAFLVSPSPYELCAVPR

[22] = target: Sodium channel protein type 9 subunit alpha/beta-1/beta-2 (Mus musculus, UniProt Q62205); assay: Inhibition of mouse Nav1.7/beta1/2 transfected in HEK293-A cells assessed as inhibition of channel current incubated for 5.5 mins by high-throughput electrophysiology system analysis; assay type: cell-based
Sodium channel protein type 9 subunit alpha/beta-1/beta-2 (Mus musculus, UniProt Q62205), sequence (Q62205 whole entry): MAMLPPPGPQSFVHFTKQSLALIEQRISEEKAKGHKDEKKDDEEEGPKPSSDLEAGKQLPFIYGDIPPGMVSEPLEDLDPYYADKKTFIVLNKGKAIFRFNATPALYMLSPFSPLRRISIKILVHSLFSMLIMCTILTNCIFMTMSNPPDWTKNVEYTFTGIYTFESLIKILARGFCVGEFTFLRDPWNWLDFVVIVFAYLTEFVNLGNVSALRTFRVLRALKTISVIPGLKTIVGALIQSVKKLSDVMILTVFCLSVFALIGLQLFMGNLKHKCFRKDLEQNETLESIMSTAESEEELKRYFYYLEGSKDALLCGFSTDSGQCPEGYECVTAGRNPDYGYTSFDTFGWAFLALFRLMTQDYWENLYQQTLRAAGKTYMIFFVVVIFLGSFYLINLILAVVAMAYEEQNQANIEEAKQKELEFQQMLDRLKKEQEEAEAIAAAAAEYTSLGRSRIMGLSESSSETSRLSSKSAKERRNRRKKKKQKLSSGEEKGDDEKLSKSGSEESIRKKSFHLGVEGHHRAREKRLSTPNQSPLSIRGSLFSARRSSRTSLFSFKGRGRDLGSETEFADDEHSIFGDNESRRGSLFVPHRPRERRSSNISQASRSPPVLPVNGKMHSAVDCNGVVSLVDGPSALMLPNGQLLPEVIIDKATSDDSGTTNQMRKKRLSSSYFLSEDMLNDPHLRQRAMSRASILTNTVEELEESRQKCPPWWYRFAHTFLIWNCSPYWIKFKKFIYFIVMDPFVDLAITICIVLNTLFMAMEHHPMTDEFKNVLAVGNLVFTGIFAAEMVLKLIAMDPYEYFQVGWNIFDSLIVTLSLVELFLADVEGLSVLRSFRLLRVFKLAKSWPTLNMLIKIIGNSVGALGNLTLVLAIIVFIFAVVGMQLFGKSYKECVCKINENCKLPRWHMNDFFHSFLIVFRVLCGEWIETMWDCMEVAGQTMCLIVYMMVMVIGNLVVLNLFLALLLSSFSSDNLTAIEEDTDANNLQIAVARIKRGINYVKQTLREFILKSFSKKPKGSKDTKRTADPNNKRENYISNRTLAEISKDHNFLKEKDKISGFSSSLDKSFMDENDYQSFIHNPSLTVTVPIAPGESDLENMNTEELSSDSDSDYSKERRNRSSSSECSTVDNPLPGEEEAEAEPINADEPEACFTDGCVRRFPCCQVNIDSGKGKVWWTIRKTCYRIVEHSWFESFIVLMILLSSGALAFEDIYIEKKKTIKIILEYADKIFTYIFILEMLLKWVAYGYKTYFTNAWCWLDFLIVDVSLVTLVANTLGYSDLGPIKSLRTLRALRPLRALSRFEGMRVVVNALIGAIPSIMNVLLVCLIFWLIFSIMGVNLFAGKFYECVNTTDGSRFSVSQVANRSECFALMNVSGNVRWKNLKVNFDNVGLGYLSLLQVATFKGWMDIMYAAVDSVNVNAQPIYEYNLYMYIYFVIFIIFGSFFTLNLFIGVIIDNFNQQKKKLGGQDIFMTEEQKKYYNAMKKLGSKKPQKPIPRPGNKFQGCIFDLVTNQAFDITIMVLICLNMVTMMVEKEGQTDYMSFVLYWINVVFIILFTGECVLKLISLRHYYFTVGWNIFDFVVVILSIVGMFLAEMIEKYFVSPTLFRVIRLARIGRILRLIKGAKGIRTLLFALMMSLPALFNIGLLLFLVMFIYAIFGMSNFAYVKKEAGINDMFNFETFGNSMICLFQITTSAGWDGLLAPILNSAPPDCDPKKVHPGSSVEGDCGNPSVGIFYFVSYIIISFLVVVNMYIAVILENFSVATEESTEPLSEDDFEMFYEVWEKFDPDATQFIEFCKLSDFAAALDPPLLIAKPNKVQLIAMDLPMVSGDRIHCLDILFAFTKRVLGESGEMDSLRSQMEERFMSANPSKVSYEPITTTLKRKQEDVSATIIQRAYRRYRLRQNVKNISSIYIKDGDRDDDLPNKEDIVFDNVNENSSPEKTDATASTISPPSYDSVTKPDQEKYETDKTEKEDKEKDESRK
Sodium channel protein type 9 subunit alpha/beta-1/beta-2 (Mus musculus, UniProt Q62205), sequence (P97952 whole entry, further chain): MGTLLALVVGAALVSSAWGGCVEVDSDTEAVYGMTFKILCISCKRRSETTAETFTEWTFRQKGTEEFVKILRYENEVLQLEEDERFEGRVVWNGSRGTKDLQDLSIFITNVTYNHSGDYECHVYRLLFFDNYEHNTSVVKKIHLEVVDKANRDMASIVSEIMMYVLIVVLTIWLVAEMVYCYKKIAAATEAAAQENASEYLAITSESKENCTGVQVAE
Sodium channel protein type 9 subunit alpha/beta-1/beta-2 (Mus musculus, UniProt Q62205), sequence (Q56A07 whole entry, further chain): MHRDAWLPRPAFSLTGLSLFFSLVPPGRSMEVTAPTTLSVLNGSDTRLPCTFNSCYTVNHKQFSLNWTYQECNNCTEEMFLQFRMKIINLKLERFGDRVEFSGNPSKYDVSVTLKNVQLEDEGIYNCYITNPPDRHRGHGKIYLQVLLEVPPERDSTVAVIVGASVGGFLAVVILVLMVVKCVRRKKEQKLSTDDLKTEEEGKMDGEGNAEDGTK

[23] = Ratio of fCmax in ddY mouse plasma at 1 mg/kg, po to IC50 for inhibition of mouse Nav1.7/beta1/2 transfected in HEK293-A cells
[24] = target: Cytochrome P450 3A4 (Homo sapiens, UniProt P08684); assay: Inhibition of CYP3A4 (unknown origin) at 10 uM; assay type: ADME
Cytochrome P450 3A4, sequence (P08684 whole entry): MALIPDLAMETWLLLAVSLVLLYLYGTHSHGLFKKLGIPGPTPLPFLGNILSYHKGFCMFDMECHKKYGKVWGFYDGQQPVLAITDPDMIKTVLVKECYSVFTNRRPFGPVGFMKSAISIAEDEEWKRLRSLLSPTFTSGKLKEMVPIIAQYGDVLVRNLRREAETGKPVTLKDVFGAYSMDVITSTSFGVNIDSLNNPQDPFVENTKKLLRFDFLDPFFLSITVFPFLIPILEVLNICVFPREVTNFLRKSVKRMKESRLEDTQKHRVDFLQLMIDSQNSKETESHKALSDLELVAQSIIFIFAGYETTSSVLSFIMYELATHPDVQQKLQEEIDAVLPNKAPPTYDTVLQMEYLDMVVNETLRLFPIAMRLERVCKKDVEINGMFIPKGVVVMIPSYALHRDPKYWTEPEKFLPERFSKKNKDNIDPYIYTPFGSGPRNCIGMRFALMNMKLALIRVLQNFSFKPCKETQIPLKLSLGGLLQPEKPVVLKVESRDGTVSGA

[25] = target: T1, Cytochrome P450 1A2 (Homo sapiens, UniProt P05177); assay: Inhibition of CYP1A2 (unknown origin) at 10 uM; assay type: ADME
T1 sequence (P05177 whole entry): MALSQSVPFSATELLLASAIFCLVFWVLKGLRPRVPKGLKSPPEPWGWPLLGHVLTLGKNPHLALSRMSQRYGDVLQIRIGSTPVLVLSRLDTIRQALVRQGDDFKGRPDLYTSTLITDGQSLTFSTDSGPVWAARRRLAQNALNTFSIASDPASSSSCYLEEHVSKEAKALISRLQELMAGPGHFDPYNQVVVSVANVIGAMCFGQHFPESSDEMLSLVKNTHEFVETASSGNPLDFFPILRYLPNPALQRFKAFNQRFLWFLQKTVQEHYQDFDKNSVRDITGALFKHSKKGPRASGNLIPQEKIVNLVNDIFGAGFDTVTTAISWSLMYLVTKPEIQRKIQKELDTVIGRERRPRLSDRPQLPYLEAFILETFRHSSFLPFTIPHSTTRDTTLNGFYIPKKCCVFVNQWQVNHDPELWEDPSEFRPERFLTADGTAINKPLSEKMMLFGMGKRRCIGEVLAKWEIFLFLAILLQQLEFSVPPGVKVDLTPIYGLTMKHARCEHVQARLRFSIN

[26] = tested on: Mus musculus; assay: Analgesic activity against PSL-induced neuropathic pain mouse model assessed as reversal of thermal hyperalgesia at 1 mg/kg, po measured after 120 mins by plantar test; assay type: functional, organism-based
[27] = Unbound fraction in mouse plasma; assay type: ADME, cell-free

IC50 [1]: 0.015 µM
AUC(0-t) [2]: 41.5 µM·h
solubility thermodynamic at 4 h [3]: 130 µM (≈ 55 µg/mL)
logD [4]: 1
Vd [7]: 0.81 L/kg
Tmax [8]: 3.3 h
half-life [9]: 17 h
Activity [10]: Not Active
inhibition (INH) [12]: Not Active
clearance [15]: 0.0606 L/h/kg
bioavailability [17]: 117%
Cmax [19]: 2.3 µM
inhibition (INH) [21]: Not Active
IC50 [22]: 0.061 µM
inhibition (INH) [24]: Not Active
inhibition (INH) [25]: Not Active
fraction unbound [27]: 0.005
Structure (SMILES): Cc1cn(-c2cncc(C(F)(F)F)c2)c2ccc(C(=O)NS(=O)(=O)C3CC3)cc12
Activity [5]: Active
IC50 [6]: 6.6 µM
inhibition at 100 µM [11]: 6.9%
IC50 [13]: 14 µM
Ratio IC50 [14]: 440
Ratio IC50 [16]: 930
Activity [18]: inactive
Activity [20]: inactive
Ratio [23]: 0.2
Activity [26]: Active
